# In patent US20120316203A1, “Compositions and Methods for Inhibition of Cancers” (THE OHIO STATE UNIVERSITY RESEARCH FOUNDATION, priority 2009, published 2012):
# Tests used:
# [1] = system: A2780R, SKOV3, OV4, and OVCAR3 cells; assay: Western blot of apoptosis and JAK/STAT3 in four additional ovarian cancer cell lines; assay type: cell-based, human; conditions: 10 μmol/L, 24 hours, all four cell lines
# Experimental: Cells in RPMI 1640 were treated with DMSO (control) or HO-3867 (10 μmol/L) for 24 hours. Equal volumes of DMSO (0.1% v/v) were present in each treatment. Following treatment, the cell lysates were prepared in non-denaturing lysis buffer containing 10 mmol/L Tris-HCl (pH 7.4), 150 mmol/L NaCl, 1% Triton X-100, 1 mmol/L EDTA, 1 mmol/L EGTA, 0.3 mmol/L phenylmethyl-sulfonyl fluoride, 0.2 mmol/L sodium orthovanadate, 0.5% NP40, 1 μg/mL aprotinin, and 1 μg/mL leupetin. The lysates were centrifuged at 10,000×g for 20 minutes at 4° C. and the supernatant was separated. The protein concentration in the lysates was determined using a Pierce detergent-compatible protein assay kit. For Western blotting, 25 to 50 μg of protein lysate per sample were denatured in 2×SDS-PAGE sample buffer and subjected to SDS-PAGE on a 10% tris-glycine gel. The separated proteins were transferred to a polyvinylidene fluoride membrane and were blocked with 5% nonfat milk powder (w/v) in TBST (10 mmol/L Tris, 10 mmol/L NaCl, 0.1% Tween 20) for 1 hour at room temperature or overnight at 4° C. […] The bound antibodies were detected with horseradish peroxidase-labeled sheep anti-mouse IgG or horseradish peroxidase-labeled donkey anti-rabbit IgG using an enhanced chemiluminescence detection system (ECL Advanced kit). Protein expressions were determined using the Image Gauge v. […]
# [2] = system: A2780 xenograft tumor tissue; assay: Immunoblot analysis of excised xenograft tumor tissue (JAK/STAT3, targets, apoptosis); assay type: in vivo, BALB/c nude mice
# Experimental: Cells in RPMI 1640 were treated with DMSO (control) or HO-3867 (10 μmol/L) for 24 hours. Equal volumes of DMSO (0.1% v/v) were present in each treatment. Following treatment, the cell lysates were prepared in non-denaturing lysis buffer containing 10 mmol/L Tris-HCl (pH 7.4), 150 mmol/L NaCl, 1% Triton X-100, 1 mmol/L EDTA, 1 mmol/L EGTA, 0.3 mmol/L phenylmethyl-sulfonyl fluoride, 0.2 mmol/L sodium orthovanadate, 0.5% NP40, 1 μg/mL aprotinin, and 1 μg/mL leupetin. The lysates were centrifuged at 10,000×g for 20 minutes at 4° C. and the supernatant was separated. The protein concentration in the lysates was determined using a Pierce detergent-compatible protein assay kit. For Western blotting, 25 to 50 μg of protein lysate per sample were denatured in 2×SDS-PAGE sample buffer and subjected to SDS-PAGE on a 10% tris-glycine gel. The separated proteins were transferred to a polyvinylidene fluoride membrane and were blocked with 5% nonfat milk powder (w/v) in TBST (10 mmol/L Tris, 10 mmol/L NaCl, 0.1% Tween 20) for 1 hour at room temperature or overnight at 4° C. The membranes were then incubated with the primary antibodies. The bound antibodies were detected with horseradish peroxidase-labeled sheep anti-mouse IgG or horseradish peroxidase-labeled donkey anti-rabbit IgG using an enhanced chemiluminescence detection system (ECL Advanced kit). Protein expressions were determined using the Image Gauge v. 3.45 software.
# Cultured A2780 cancer cells (2×10^6 cells in […] of PBS) were s.c. injected into the back of 6-week-old BALB/c nude mice from the National Cancer Institute. Five to 7 days later, when the tumors reached 3 to 5 mm in diameter, the mice were divided (n=9/group) in a manner to equalize the mean tumor diameter among the groups. The control group was given a normal diet (no treatment), whereas the experimental groups were treated using the DAP compounds mixed with the animal feed (Harlan Teklad) at three different levels (25, 50, and 100 ppm). The doses were chosen based on an initial dose-response study optimized to produce an observable effect on tumor growth. The size of the tumor was measured twice per week using a digital Vernier caliper. The tumor volume was determined from the orthogonal dimensions (d1, d2, d3) using the formula (d1×d2×d3)×π/6. Thirty five days after the beginning of HO-3867 treatment, the mice were sacrificed and the tumors were resected. The tumor tissues were then subjected to immunoblot analysis.
# [3] = system: FAS and FAK in A2780 and SKOV3 cells; assay: FAS and FAK protein and mRNA expression in ovarian cancer cells; assay type: cell-based, human; conditions: 10 μM
# Experimental: Cells in RPMI 1640 medium were treated with DMSO (control) or HO-3867 (10 μM) for 24 h. Equal volumes of DMSO (0.1% v/v) were present in each treatment. Following treatment, the cell lysates were prepared in nondenaturing lysis buffer containing 10-mM Tris-HCl (pH 7.4), 150-mM NaCl, 1% Triton X-100, 1-mM EDTA, 1-mM EGTA, 0.3-mM phenylmethylsulfonyl fluoride, 0.2-mM sodium orthovanadate, 0.5% NP40, 1-μg/ml aprotinin, and 1-μg/ml leupetin. The lysates were centrifuged at 10,000×g for 20 min at 4° C., and the supernatant was separated. The protein concentration in the lysates was determined using a Pierce detergent-compatible protein assay kit. For Western blotting, 25 to 50 μg of protein lysate per sample was denatured in 2×SDS-PAGE sample buffer and subjected to SDS-PAGE on a 10% tris-glycine gel. […] The bound antibodies were detected with horseradish peroxidase (HRP)-labeled sheep anti-mouse IgG or HRP-labeled donkey anti-rabbit IgG using an enhanced chemiluminescence detection system (ECL Advanced kit). Protein expressions were determined using Image Gauge version 3.45.
# Total RNA isolated from ovarian tumor tissue was prepared with TRIzol (Life Technologies, Grand Island, N.Y.) according to the manufacturer's instructions. RNA quantification was done using spectrophotometry. […]
# [4] = system: A2780 xenograft tumor tissues; assay: FAS/FAK and VEGF levels in xenograft tumor tissues (immunoblot, immunohistochemistry); assay type: in vivo, BALB/c nude mice
# Experimental: A2780 cells (5×10^6 cells in 60 μl of PBS) were subcutaneously (s.c.) injected into the back of 6-week-old BALB/c nude mice from the National Cancer Institute. On the 5th day when the tumor size reached approximately 2 to 4 mm, the control groups was supplemented a normal diet (no treatment) while the experimental groups were treated using the DAP compounds mixed with the animal feed ([…]). The doses were chosen based on an initial dose-response study optimized to produce an observable effect on tumor growth. The tumor tissues were then subjected to immunoblotting and immunohistochemistry.
# Tumor tissues were fixed in formalin and embedded in paraffin. Sections (6-μm thick) were obtained and used for hematoxylin and eosin staining. For immunofluorescence staining, the tissue sections (8-μm thick) were serially rehydrated in 100%, 95%, and 80% ethanol after deparaffinization with xylene. Slides were kept in steam for 30 min and then washed in PBS (pH 7.4) three times for 5 min each. Tissue sections were incubated with 2% goat serum and 5% bovine serum albumin in PBS to reduce nonspecific binding. The sections were then incubated for 4 h with an anti-mouse anti-FAS, or anti-VEGF. The sections were then incubated with secondary antibodies (1:1000 dilutions) conjugated to horseradish peroxidase (HRP)-labeled sheep anti-mouse IgG or HRP-labeled donkey anti-rabbit IgG (Amersham Pharmacia Biotech). The tissue slides were visualized using a Nikon fluorescence microscope.
# [5] = 50 or 100 ppm in feed, dose-dependent
smiles,measurement,setting,value
"CC1(C)C=C(CN2C/C(=C\c3ccc(F)cc3)C(=O)/C(=C/c3ccc(F)cc3)C2)C(C)(C)N1O [HO-3867, 1-[(1-oxyl-2,2,5,5-tetramethyl-2,5-dihydro-1H-pyrrol-3-yl)methyl]-(3E,5E)-3,5-bis(4-fluorobenzylidene)piperidin-4-one]",caspase-3 and PARP cleavage,[1],clearly showed caspase-3 and PARP cleavage
same,expression levels of pSTAT3 and JAK1,[1],decrease
same,cleaved caspase-3 and PARP in tumors,"[2]; mouse, in vivo",significant induction
same,"cyclin D1, VEGF, Bcl-2, and Survivin levels in tumors","[2]; mouse, in vivo",clear decrease
same,pJAK levels in tumor tissues,"[2]; mouse, in vivo",did not observe any significant change
same,total JAK levels in tumor tissues,"[2]; mouse, in vivo",clear downregulation
same,pSTAT3 Tyr705 and Ser727 levels in tumor tissue,[2]; without affecting total STAT3,decreased expressions
same,"FAS and FAK, protein and expression levels",[3],incubation-time-dependent inhibition
same,"SREBP1, MMP-2, and VEGF in xenografted tumor tissues",[4]; [5],clear down-regulation
same,expression of FAS and FAK in xenografted tumor tissues,[4]; [5],decreased expression
same,protein levels of FAS and VEGF by immunocytochemistry in tumor-bearing mice,"[4]; mouse, in vivo",significantly inhibited
